Assays:
Type in all cases: in vivo
[1] = system: Plutella xylostella (Diamond Back Moth); assay: Example B3: Activity against Plutella xylostella (diamond back moth), artificial diet; settings: 192 h, application rate 200 ppm, eggs on artificial diet, 8 days after infestation, read-out: effect in at least one of the two categories (mortality or growth inhibition)
Method: Example B3: Activity Against Plutella xylostella (Diamond Back Moth)
24-well microtiter plates with artificial diet were treated with aqueous test solutions prepared from 10′000 ppm DMSO stock solutions by pipetting. After drying, Plutella eggs were pipetted through a plastic stencil onto a gel blotting paper and the plate was closed with it. The samples were assessed for mortality and growth inhibition in comparison to untreated samples 8 days after infestation. The following compounds gave an effect of at least 80% in at least one of the two categories (mortality or growth inhibition) at an application rate of 200 ppm: P2, P4, P5, P6, P8, P9, P10, P11, P12, P14, P15, P16, P17, P18, P19, P20, P21, P22, P23, P24, P25, P26, P27, P28, P29, P30, P31, P32, P33, P34, P35, P36, P38, P39, P40, P42, P45, P46, P47, P49, P50, P51, P52.

[2] = system: Myzus persicae (Green Peach Aphid); assay: whole plant or invertebrate; settings: foliar, 144 h, application rate 200 ppm, sprayed sunflower leaf discs, mixed ages, 6 days after infestation
Method: Example B4: Activity Against Myzus persicae (Green Peach Aphid) Feeding/Contact Activity
Sunflower leaf discs were placed onto agar in a 24-well microtiter plate and sprayed with aqueous test solutions prepared from 10′000 ppm DMSO stock solutions. After drying, the leaf discs were infested with an aphid population of mixed ages. The samples were assessed for mortality 6 days after infestation.

[3] = system: Diabrotica balteata (Corn Root Worm); assay: Example B1: Activity against Diabrotica balteata (corn root worm), sprayed maize sprouts; settings: 96 h, application rate 200 ppm, L2 larvae on sprayed maize sprouts, 4 days after infestation, read-out: effect in at least one of the two categories (mortality or growth inhibition)
Method: Example B1: Activity Against Diabrotica balteata (Corn Root Worm)
Maize sprouts placed onto an agar layer in 24-well microtiter plates were treated with aqueous test solutions prepared from 10′000 ppm DMSO stock solutions by spraying. After drying, the plates were infested with L2 larvae (6 to 10 per well). The samples were assessed for mortality and growth inhibition in comparison to untreated samples 4 days after infestation.

[4] = system: Euschistus heros (Neotropical Brown Stink Bug); assay: Example B2: Activity against Euschistus heros (neotropical brown stink bug), sprayed soybean leaves; settings: 120 h, application rate 200 ppm, N2 nymphs on sprayed soybean leaves, 5 days after infestation, read-out: effect in at least one of the two categories (mortality or growth inhibition)
Method: Example B2: Activity Against Euschistus heros (Neotropical Brown Stink Bug)
Soybean leaves on agar in 24-well microtiter plates were sprayed with aqueous test solutions prepared from 10′000 ppm DMSO stock solutions. After drying the leaves were infested with N2 nymphs. The samples were assessed for mortality and growth inhibition in comparison to untreated samples 5 days after infestation.

[5] = system: Myzus persicae (Green Peach Aphid); assay: Example B5: Activity against Myzus persicae (green peach aphid), systemic activity; settings: 144 h, test rate 24 ppm, roots of pea seedlings in test solution, mixed ages, 6 days
Method: Example B5: Activity Against Myzus persicae (Green Peach Aphid) Systemic Activity
Roots of pea seedlings infested with an aphid population of mixed ages were placed directly into aqueous test solutions prepared from 10′000 DMSO stock solutions. The samples were assessed for mortality 6 days after placing seedlings into test solutions.

[6] = system: Spodoptera littoralis (Egyptian Cotton Leaf Worm); assay: Example B6: Activity against Spodoptera littoralis (Egyptian cotton leaf worm); settings: foliar, 72 h, application rate 200 ppm, L1 larvae on sprayed cotton leaf discs, 3 days after infestation, read-out: control (mortality, anti-feeding effect or growth inhibition)
Method: Example B6: Activity Against Spodoptera littoralis (Egyptian Cotton Leaf Worm)
Cotton leaf discs were placed onto agar in 24-well microtiter plates and sprayed with aqueous test solutions prepared from 10′000 ppm DMSO stock solutions. After drying the leaf discs were infested with five L1 larvae. The samples were assessed for mortality, anti-feeding effect, and growth inhibition in comparison to untreated samples 3 days after infestation. Control of Spodoptera littoralis by a test sample is given when at least one of the categories mortality, anti-feedant effect, and growth inhibition is higher than the untreated sample.

[7] = system: Frankliniella occidentalis (Western Flower Thrips); assay: Example B8: Activity against Frankliniella occidentalis (western flower thrips); settings: foliar, 168 h, application rate 200 ppm, sprayed sunflower leaf discs, mixed ages, 7 days after infestation
Method: Example B8: Activity Against Frankliniella occidentalis (Western Flower Thrips)
Sunflower leaf discs were placed on agar in 24-well microtiter plates and sprayed with aqueous test solutions prepared from […] stock solutions. After drying the leaf discs were infested with a Frankliniella population of mixed ages. The samples were assessed for mortality 7 days after infestation.

CCS(=O)(=O)c1cc(C2(C#N)CC2)cnc1-c1cc2ncn(CC(F)(F)C(F)(F)F)c2cn1 [Compound P34, 1-[5-ethylsulfonyl-6-[3-(2,2,3,3,3-pentafluoropropyl)imidazo [4,5-c]pyridin-6-yl]-3-pyridyl]cyclopropane-carbonitrile]
≥ 80%: percent effect (mortality or growth inhibition) at 200 ppm [1] | mortality at 200 ppm [2] | percent effect (mortality or growth inhibition) at 200 ppm [3] | percent effect (mortality or growth inhibition) at 200 ppm [4] | mortality at 24 ppm [5]

CCS(=O)(=O)c1cc(C2CC2)cnc1-c1cc2ncn(CC(F)(F)C(F)(F)F)c2cn1 [Compound P52, 6-(5-cyclopropyl-3-ethylsulfonyl-2-pyridyl)-3-(2,2,3,3,3-pentafluoropropyl) imidazo[4,5-c]pyridine]
≥ 80%: percent effect (mortality or growth inhibition) at 200 ppm [1] | percent effect (mortality or growth inhibition) at 200 ppm [3] | percent effect (mortality or growth inhibition) at 200 ppm [4] | percent control (mortality, anti-feedant effect or growth inhibition) at 200 ppm [6] | mortality at 24 ppm [5]

CCS(=O)(=O)c1ccc(N(C)C(C)=O)nc1-c1cc2cnn(CC(F)(F)C(F)(F)F)c2cn1 [Compound P12, N-[5-ethylsulfonyl-6-[1-(2,2,3,3,3-pentafluoropropyl)pyrazolo[3,4-c]pyridin-5-yl]-2-pyridyl]-N-methyl-acetamide]
≥ 80%: percent effect (mortality or growth inhibition) at 200 ppm [1] | mortality at 200 ppm [2] | percent effect (mortality or growth inhibition) at 200 ppm [3] | percent effect (mortality or growth inhibition) at 200 ppm [4] | percent control (mortality, anti-feedant effect or growth inhibition) at 200 ppm [6] | mortality at 24 ppm [5]

CCS(=O)(=O)c1cccnc1-c1cc2cnn(CC(F)(F)C(F)(F)F)c2cn1 [Compound P4, 5-(3-ethylsulfonyl-2-pyridyl)-1-(2,2,3,3,3-pentafluoropropyl)pyrazolo[3,4-c]pyridine]
≥ 80%: percent effect (mortality or growth inhibition) at 200 ppm [1] | mortality at 200 ppm [2] | percent effect (mortality or growth inhibition) at 200 ppm [3] | percent effect (mortality or growth inhibition) at 200 ppm [4] | percent control (mortality, anti-feedant effect or growth inhibition) at 200 ppm [6] | mortality at 24 ppm [5]

CCS(=O)(=O)c1cc(-n2ccc(Cl)n2)cnc1-c1cc2cnn(CC(F)(F)C(F)(F)F)c2cn1 [Compound P46, 5-[5-(3-chloropyrazol-1-yl)-3-ethylsulfonyl-2-pyridyl]-1-(2,2,3,3,3-pentafluoropropyl) pyrazolo[3,4-c]pyridine]
≥ 80%: percent effect (mortality or growth inhibition) at 200 ppm [1] | mortality at 200 ppm [2] | percent effect (mortality or growth inhibition) at 200 ppm [3] | percent effect (mortality or growth inhibition) at 200 ppm [4] | percent control (mortality, anti-feedant effect or growth inhibition) at 200 ppm [6]

CCS(=O)(=O)c1cc(N(C)C(C)=O)cnc1-c1cc2cnn(CC(F)(F)C(F)(F)F)c2cn1 [Compound P2, N-[5-ethylsulfonyl-6-[1-(2,2,3,3,3-pentafluoropropyl)pyrazolo[3,4-c]pyridin-5-yl]-3-pyridyl]-N-methyl-acetamide]
≥ 80%: percent effect (mortality or growth inhibition) at 200 ppm [1] | mortality at 200 ppm [2] | percent effect (mortality or growth inhibition) at 200 ppm [3] | percent effect (mortality or growth inhibition) at 200 ppm [4] | percent control (mortality, anti-feedant effect or growth inhibition) at 200 ppm [6] | mortality at 24 ppm [5]

CCS(=O)(=O)c1ccc(N(C)C(=O)NC)nc1-c1cc2cnn(CC(F)(F)C(F)(F)F)c2cn1 [Compound P33, 1-[5-ethylsulfonyl-6-[1-(2,2,3,3,3-pentafluoropropyl)pyrazolo[3,4-c]pyridin-5-yl]-2-pyridyl]-1,3-dimethyl-urea]
≥ 80%: percent effect (mortality or growth inhibition) at 200 ppm [1] | mortality at 200 ppm [2] | percent effect (mortality or growth inhibition) at 200 ppm [3] | percent effect (mortality or growth inhibition) at 200 ppm [4] | percent control (mortality, anti-feedant effect or growth inhibition) at 200 ppm [6]

CCSc1cc(C(C)(C)C#N)cnc1-c1cc2ncn(CC(F)(F)C(F)(F)F)c2cn1 [Compound P47, 2-[5-ethylsulfanyl-6-[3-(2,2,3,3,3-pentafluoropropyl)imidazo[4,5-c]pyridin-6-yl]-3-pyridyl]-2-methyl-propanenitrile]
≥ 80%: percent effect (mortality or growth inhibition) at 200 ppm [1] | percent effect (mortality or growth inhibition) at 200 ppm [3] | percent effect (mortality or growth inhibition) at 200 ppm [4] | mortality at 200 ppm [7]

CCS(=O)(=O)c1cc(Oc2ccccn2)cnc1-c1cc2ccn(CC(F)(F)C(F)(F)F)c2cn1 [Compound P17, 5-[3-ethylsulfonyl-5-(2-pyridyloxy)-2-pyridyl]-1-(2,2,3,3,3-pentafluoropropyl) pyrrolo[2,3-c]pyridine]
≥ 80%: percent effect (mortality or growth inhibition) at 200 ppm [1] | mortality at 200 ppm [2] | percent effect (mortality or growth inhibition) at 200 ppm [3] | percent effect (mortality or growth inhibition) at 200 ppm [4] | percent control (mortality, anti-feedant effect or growth inhibition) at 200 ppm [6]

CCSc1cccnc1-c1cc2ncn(CC(F)(F)C(F)(F)F)c2cn1 [Compound P44, 6-(3-ethylsulfanyl-2-pyridyl)-3-(2,2,3,3,3-pentafluoropropyl) imidazo[4,5-c]pyridine]
≥ 80%: mortality at 200 ppm [2] | mortality at 24 ppm [5]

CCS(=O)(=O)c1cc(N(C)C(C)=O)cnc1-c1cc2ccn(CC(F)(F)C(F)(F)F)c2cn1 [Compound P16, N-[5-ethylsulfonyl-6-[1-(2,2,3,3,3-pentafluoropropyl)pyrrolo[2,3-c]pyridin-5-yl]-3-pyridyl]-N-methyl-acetamide]
≥ 80%: percent effect (mortality or growth inhibition) at 200 ppm [1] | mortality at 200 ppm [2] | percent effect (mortality or growth inhibition) at 200 ppm [3] | percent control (mortality, anti-feedant effect or growth inhibition) at 200 ppm [6] | mortality at 24 ppm [5]

CCS(=O)(=O)c1cc(Oc2ccccn2)cnc1-c1cc2cnn(CC(F)(F)C(F)(F)F)c2cn1 [Compound P21]
≥ 80%: percent effect (mortality or growth inhibition) at 200 ppm [1] | mortality at 200 ppm [2] | percent effect (mortality or growth inhibition) at 200 ppm [3] | percent effect (mortality or growth inhibition) at 200 ppm [4] | percent control (mortality, anti-feedant effect or growth inhibition) at 200 ppm [6]

CCS(=O)(=O)c1ccc(N(C)C(=O)C2CC2)nc1-c1cc2cnn(CC(F)(F)C(F)(F)F)c2cn1 [Compound P15, N-[5-ethylsulfonyl-6-[1-(2,2,3,3,3-pentafluoropropyl)pyrazolo[3,4-c]pyridin-5-yl]-2-pyridyl]-N-methyl-cyclopropane-carboxamide]
≥ 80%: percent effect (mortality or growth inhibition) at 200 ppm [1] | mortality at 200 ppm [2] | percent effect (mortality or growth inhibition) at 200 ppm [3] | percent effect (mortality or growth inhibition) at 200 ppm [4] | percent control (mortality, anti-feedant effect or growth inhibition) at 200 ppm [6]

CCS(=O)(=O)c1cc(C(C)(C)C#N)cnc1-c1cc2ncn(CC(F)(F)C(F)(F)F)c2cn1 [Compound P40, 2-[5-ethylsulfonyl-6-[3-(2,2,3,3,3-pentafluoropropyl)imidazo[4,5-c]pyridin-6-yl]-3-pyridyl]-2-methyl-propanenitrile]
≥ 80%: percent effect (mortality or growth inhibition) at 200 ppm [1] | mortality at 200 ppm [2] | percent effect (mortality or growth inhibition) at 200 ppm [3] | percent effect (mortality or growth inhibition) at 200 ppm [4] | percent control (mortality, anti-feedant effect or growth inhibition) at 200 ppm [6] | mortality at 24 ppm [5]

Source: US20220132852A1, “PESTICIDALLY ACTIVE HETEROCYCLIC DERIVATIVES WITH SULFUR CONTAINING SUBSTITUENTS” (SYNGENTA CROP PROTECTION AG, priority 2019, published 2022)
